# Data taken from patent US20090221019A1, “Core-Modified Terpene Trilactones From Ginkgo Biloba Extract and Biological Evaluation Thereof” (priority 2005, published 2009).
# Tests used:
# [1] = system: Aβ1-42 induced inhibition of long-term potentiation in the CA1 region of hippocampal slices; test: Aβ-induced LTP impairment in CA1 region of hippocampal slices (fEPSP recordings, theta-burst stimulation); assay type: cell-based, rat; mice; details: for reversal of Aβ-induced LTP impairment: individual terpene trilactones at 1 μM each, co-treated with 200 nM Aβ1-42 oligomers, 20 min; for efficiency of rescue of LTP impairment compared with GJ: 1 μM, 20 min treatment, slices treated with Aβ
# glycine receptor = details: among several receptor-gated channels; cited from earlier work
# [2] = system: SY5Y human neuroblastoma cell line; details: Bate et al. (25); cited from earlier work
# [3] = system: cultured hippocampal neurons treated with oligomeric Aβ1-42; test: Neuronal cell death assay (nuclear counting of viable cells); details: for cells surviving: mean±SEM
# GABAA receptor = details: compared with all the ginkgolides; cited from earlier work
# [4] = system: GABAA receptor convulsant binding site; details: cited from earlier work
# [5] = system: inhibition of LTP by Aβ1-42 oligomers; details: earlier studies (19); cited from earlier work
# [6] = 1 μM compound added at the same time as 10 μM oligomeric Aβ1-42, 24 hour, Aβ alone 48.5%±2.4
compound,measurement,setting,value
"CC(C)(C)[C@]1(O)CC2OC(=O)CC23C(=O)OC2OC(=O)[C@H](O)C231 (stereo partly drawn) [BB, bilobalide]",reversal of Aβ-induced LTP impairment,[1],No effect
"C[C@@H]1C(=O)O[C@H]2C[C@@]34[C@H]5C[C@@H](C(C)(C)C)[C@]36[C@@H](OC(=O)[C@@H]6O)O[C@@]4(C(=O)O5)[C@]21O [GA, ginkgolide A]",efficiency of rescue of LTP impairment compared with GJ,[1],slightly less than that of GJ
same,reversal of Aβ-induced LTP impairment,[1],capable of reproducing the activity of the enriched extract and reversing Aβ-induced LTP impairment
same,antagonistic properties toward glycine receptor,glycine receptor,showed antagonistic properties exclusively toward glycine receptor
same,blockade of cell death,[2],blockade of cell death
same,cells surviving,[3]; [6],50.5%±+5.7
C[C@@H]1COC2CC34C5C[C@@H](C(C)(C)C)C36C(OC[C@@H]6O)O[C@@]4(CO5)[C@]21O (stereo partly drawn) [GA-triether],efficiency of rescue of LTP impairment compared with GJ,[1],slightly less than that of GJ
same,reversal of Aβ-induced LTP impairment,[1],capable of reproducing the activity of the enriched extract and reversing Aβ-induced LTP impairment
"CC1C(=O)OC2C(O)C34C5CC(C(C)(C)C)C36C(OC(=O)C6O)OC4(C(=O)O5)C12O (stereo not drawn) [GB, ginkgolide B]",reversal of Aβ-induced LTP impairment,[1],No effect
same,antagonistic properties toward glycine receptor,glycine receptor,showed antagonistic properties exclusively toward glycine receptor
same,blockade of cell death,[2],blockade of cell death
"C[C@@H]1C(=O)O[C@@H]2[C@H]1[C@@]13OC4OC(=O)[C@H](O)C45[C@H](C(C)(C)C)[C@@H](O)C(OC1=O)[C@]53[C@H]2O (stereo partly drawn) [GM, Ginkgolide M]",inhibition of the GABAA receptor,GABAA receptor,highest inhibition
same,displacement of TBPS (35S-tert-butylbicyclophosphorothionate),[4],efficiently displaced
COc1ccc(C2CNC(=O)C2)cc1OC1CCCC1 (stereo not drawn) [rolipram],reversal of inhibition of LTP by Aβ1-42 oligomers,[5],can be reversed by treatment with the phosphodiesterase 4 (PDE4) inhibitor rolipram
ginkgolide C [GC],reversal of Aβ-induced LTP impairment,[1],No effect
same,antagonistic properties toward glycine receptor,glycine receptor,showed antagonistic properties exclusively toward glycine receptor
ginkgolide J [GJ],"potentiation at the end of the recording (residual potentiation, FIG. 12)",[1]; 155 min,"most potent ginkgolide, completely mimicking the activity of the enriched extract"
same,reversal of Aβ-induced LTP impairment,[1],capable of reproducing the activity of the enriched extract and reversing Aβ-induced LTP impairment
same,antagonistic properties toward glycine receptor,glycine receptor,showed antagonistic properties exclusively toward glycine receptor
same,cells surviving,[3]; [6],70.7%±1.4
same,prevention of Aβ-toxicity,"[3]; 5 μM, data not shown",completely prevented the Aβ-toxicity
"oligomeric Aβ1-42: Aβ1-42 purchased from American Peptide, prepared in oligomeric form; neurotoxic agent [reference compound]",LTP in the CA1 area relative to control,"[1]; 200 nM Aβ1-42 oligomers alone, within 20 min of exposure",depressed LTP in the CA1 area to about a half of control values
same,effect on baseline transmission,[1]; substance alone,Neither Aβ nor P8A alone affected baseline transmission
same,cells surviving,"[3]; 10 μM oligomeric Aβ1-42 alone, 24 hour exposure",48.5%±2.4
